Results: patent US9227982B2 (NOVARTIS AG, priority 2011, dated 2016)
Where two headings read alike, the source gives them in different places.

What was measured:
[1] = target: human tankyrase 1 PARP catalytic domain, TNKS1P (Homo sapiens (Human), UniProt O95271); experiment: TNKS1 autoparsylation enzymatic assay (LC/MS detection of nicotinamide); format: biochemical; settings: 20 nM enzyme, 250 μM β-NAD+, 60 min, read-out: TNKS1 AP IC50
From the text: (§1) The human tankyrase 1 PARP catalytic domain, TNKS1P, was cloned into a pDONR221 vector using the Invitrogen Gateway Technology. This entry clone was then subcloned into the destination vector pDEST20 to obtain the N-terminal Glutathione S-transferase (GST)-tagged fusion protein. GST-TNKS1P was then expressed in Sf21 cells using the Invitrogen baculovirus expression system (Invitrogen-Bac-to-Bac® Baculovirus Expression System, Version D). The protein was purified by a GSTrap column (GE Healthcare). The N-terminal GST-tagged tankyrase 2 protein PARP domain, TNKS2P, was cloned, expressed, and purified in a similar manner. Human PARP1 (Cat. No. 4668-100-01) and activated DNA (Cat. No. 4671-096-06) were purchased from Trevigen, Inc. PARP2 (Cat. No. ALX-201-064-C020) was purchased from Alexis Biochemical.
The % Inhibition was calculated as: (Control−Sample)/(Control−Background)*100. “Control” is the average value of 8 wells without compound; and “Background” is the average of 8 wells mixed with 5× quenching solution measured prior to initiation of the reaction.

[2] = system: Wnt ligand-induced signaling; experiment: Wnt-responsive Super-TOpFlash (STF) luciferase reporter gene assay in HEK293 cells; format: cell-based; settings: 20% Wnt3A conditioned medium, read-out: HEK293STF IC50
Experimental: Cellular Reporter Gene Assay to Determine Compound Inhibition of Wnt Signaling Activity
Compound activity in inhibiting Wnt ligand-induced signaling was measured using a Wnt-responsive Super-TOpFlash (STF) luciferase reporter gene assay in HEK293 cells. On day 1 of the assay, cells were plated at a density of 8000 cells per well of 384-well plate in 25 μl medium containing 5% fetal bovine serum (FBS). On the second day, […] condition medium (CM) produced from mouse L cells was added to the cells to induce Wnt signaling, followed by addition of 5 μL of compounds each well in 10-point serial dilution. On the third day, the luciferase activity was measured by the Bright-Glo™ Luciferase Assay System following manufacture's protocol (Promega, E2620). The Inhibition was calculated as: (Maximum Wnt-induced signaling−Sample)/(Maximum Wnt-induced signaling−Background)*100. “Maximum Wnt-induced signaling” is the STF signal level induced by 20% Wnt3A CM without compound; and “Background” is the STF signal level without the addition of Wnt3A CM or compound.

[3] = target: TNKS2 (GST-tagged tankyrase 2 PARP domain, TNKS2P) (Homo sapiens (Human), UniProt Q9H2K2); experiment: TNKS2 autoparsylation enzymatic assay (LC/MS detection of nicotinamide); format: biochemical; settings: 20 nM enzyme, 250 μM β-NAD+, 60 min, read-out: TNKS2 AP IC50
From the text: as §1, with “manner.” for “manner. Human PARP1 (Cat. No. 4668-100-01) and activated DNA (Cat. No. 4671-096-06) were purchased from Trevigen, Inc. PARP2 (Cat. No. ALX-201-064-C020) was purchased from Alexis Biochemical.”
The % Inhibition was calculated as: (Control−Sample)/(Control−Background)*100.

Chain of human tankyrase 1 PARP catalytic domain, TNKS1P (O95271 1112-1317): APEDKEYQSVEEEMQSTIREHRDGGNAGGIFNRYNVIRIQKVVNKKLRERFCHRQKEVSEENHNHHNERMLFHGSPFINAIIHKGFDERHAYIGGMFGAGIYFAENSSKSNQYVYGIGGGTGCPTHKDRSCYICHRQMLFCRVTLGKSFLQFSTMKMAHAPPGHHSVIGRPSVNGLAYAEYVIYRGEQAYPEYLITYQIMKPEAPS
Chain of TNKS2 (GST-tagged tankyrase 2 PARP domain, TNKS2P) (Q9H2K2 959-1164): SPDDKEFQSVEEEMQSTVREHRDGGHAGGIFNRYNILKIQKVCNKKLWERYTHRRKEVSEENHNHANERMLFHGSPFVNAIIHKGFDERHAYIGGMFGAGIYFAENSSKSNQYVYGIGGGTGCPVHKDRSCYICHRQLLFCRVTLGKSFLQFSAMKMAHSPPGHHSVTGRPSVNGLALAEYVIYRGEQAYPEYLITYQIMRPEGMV

Row | Compound | IC50 [1] | IC50 ([2]; Homo sapiens) | IC50 [3] | IC50 [2]
1 | O=C(CCc1cccc(F)c1)N(Cc1nc2c(c(=O)[nH]1)COCC2)Cc1cccs1 [Example 5, 3-(3-Fluorophenyl)-N-((4-oxo-4,5,7,8-tetrahydro-3H-pyrano[4,3-d]pyrimidin-2-yl)methyl)-N-(thiophen-2-ylmethyl)propanamide] | 1.58 ± 0.014 µM | – | – | –
2 | O=C(CCc1ccccc1)N(Cc1nc2c(c(=O)[nH]1)COCC2)Cc1nccs1 [Example 19, N-((4-Oxo-4,5,7,8-tetrahydro-3H-pyrano[4,3-d]pyrimidin-2-yl)methyl)-3-phenyl-N-(thiazol-2-ylmethyl)propanamide] | 11.4 ± 0.4 µM | 8.56 ± 0.42 µM | 2030 ± 40 nM | –
3 | O=C(CCc1ccccc1)N(Cc1nc2c(c(=O)[nH]1)COCC2)Cc1ccc(Cl)s1 [Example 21, N-((5-Chlorothiophen-2-yl)methyl)-N-((4-oxo-4,5,7,8-tetrahydro-3H-pyrano[4,3-d]pyrimidin-2-yl)methyl)-3-phenylpropanamide] | 1.61 ± 0.11 µM | 1.97 ± 0.56 µM | 318 ± 9 nM | –
4 | CC(C)N(Cc1nc2c(c(=O)[nH]1)COCC2)C(=O)CCc1ccccc1 [Example 16, N-Isopropyl-N-((4-oxo-4,5,7,8-tetrahydro-3H-pyrano[4,3-d]pyrimidin-2-yl)methyl)-3-phenylpropanamide] | > 19 µM | 34.9 µM | 5390 ± 1630 nM | –
5 | O=C(CCc1ccccc1)N(CCO)Cc1nc2c(c(=O)[nH]1)COCC2 [Example 23, N-(2-Hydroxy-ethyl)-N-(4-oxo-3,5,7,8-tetrahydro-4H-pyrano[4,3-d]pyrimidin-2-ylmethyl)-3-phenyl-propionamide] | 16.93 ± 0.02 µM | > 50 µM | 2680 ± 77 nM | –
6 | O=C(CCc1ccccc1)N(Cc1nc2c(c(=O)[nH]1)COCC2)Cc1cncs1 [Example 22, N-((4-Oxo-4,5,7,8-tetrahydro-3H-pyrano[4,3-d]pyrimidin-2-yl)methyl)-3-phenyl-N-(thiazol-5-ylmethyl)propanamide] | 17.5 ± 1 µM | 18.2 ± 4.5 µM | 3480 ± 710 nM | –
7 | O=C(CCc1ccc(O)cc1)N(Cc1nc2c(c(=O)[nH]1)COCC2)Cc1cccs1 [Example 8, 3-(4-Hydroxy-phenyl)-N-(4-oxo-3,5,7,8-tetrahydro-4H-pyrano[4,3-d]pyrimidin-2-ylmethyl)-N-thiophen-2-ylmethyl-propionamide] | 1.42 ± 0.04 µM | – | – | –
8 | C[C@H](c1ccccc1)N(Cc1nc2c(c(=O)[nH]1)COCC2)S(=O)(=O)Cc1ccccc1 [Example 25, (R)—N-((4-Oxo-4,5,7,8-tetrahydro-3H-pyrano[4,3-d]pyrimidin-2-yl)methyl)-1-phenyl-N-(1-phenylethyl)methanesulfonamide] | 9.08 ± 0.76 µM | 23.2 ± 7.9 µM | 1850 ± 60 nM | –
9 | O=c1[nH]c(CN(Cc2cccs2)S(=O)(=O)CCc2ccccc2)nc2c1COCC2 [Example 10, 2-Phenyl-ethanesulfonic acid (4-oxo-3,5,7,8-tetrahydro-4H-pyrano[4,3-d]pyrimidin-2-ylmethyl)-thiophen-2-ylmethyl-amide] | – | 2.43 ± 0.94 µM | – | –
10 | O=C(CCc1ccccc1F)N(Cc1ccc[nH]1)Cc1nc2c(c(=O)[nH]1)COCC2 [Example 26, N-((1H-Pyrrol-2-yl)methyl)-3-(2-fluorophenyl)-N-((4-oxo-4,5,7,8-tetrahydro-3H-pyrano[4,3-d]pyrimidin-2-yl)methyl)propanamide] | 1.17 ± 0.12 µM | 5 ± 0.72 µM | 235 ± 24 nM | –
11 | C[C@@H](c1ccccc1)N(Cc1nc2c(c(=O)[nH]1)COCC2)S(=O)(=O)Cc1ccccc1 [Example 24, (S)—N-((4-Oxo-4,5,7,8-tetrahydro-3H-pyrano[4,3-c]pyrimidin-2-yl)methyl)-1-phenyl-N-(1-phenylethyl)methanesulfonamide] | 18.1 ± 1.9 µM | 15.7 ± 0.8 µM | 3120 ± 60 nM | –
12 | CC(C)(C)C(=O)CN(Cc1nc2c(c(=O)[nH]1)COCC2)C(=O)CCc1ccccc1 [Example 17, N-(3,3-Dimethyl-2-oxobutyl)-N-((4-oxo-4,5,7,8-tetrahydro-3H-pyrano[4,3-d]pyrimidin-2-yl)methyl)-3-phenylpropanamide] | 17.1 ± 2 µM | 14.3 ± 1 µM | 2990 ± 36 nM | –
13 | O=c1[nH]c(CN(Cc2cccs2)S(=O)(=O)Cc2ccccc2)nc2c1COCC2 [Example 9, N-((4-Oxo-4,5,7,8-tetrahydro-3H-pyrano[4,3-d]pyrimidin-2-yl)methyl)-1-phenyl-N-(thiophen-2-ylmethyl)methanesulfonamide] | – | 0.9 ± 0.23 µM | – | –
14 | O=C(CCc1ccccc1)N(Cc1nc2c(c(=O)[nH]1)COCC2)Cc1ncco1 [Example 20, N-(Oxazol-2-ylmethyl)-N-((4-oxo-4,5,7,8-tetrahydro-3H-pyrano[4,3-d]pyrimidin-2-yl)methyl)-3-phenylpropanamide] | 4.6 ± 0.2 µM | 14.3 ± 4 µM | 1700 ± 30 nM | –
15 | N-((4-Oxo-4,5,7,8-tetrahydro-3H-pyrano[4,3-d]pyrimidin-2-yl)methyl)-3-(pyridin-4-yl)-N-(thiophen-2-ylmethyl)propanamide [Example 12] | 14.6 ± 0.4 µM | – | – | 41 ± 1.6 µM
16 | CCN(Cc1nc2c(c(=O)[nH]1)COCC2)C(=O)CCc1ccccc1 [Example 15, N-Ethyl-N-((4-oxo-4,5,7,8-tetrahydro-3H-pyrano[4,3-d]pyrimidin-2-yl)methyl)-3-phenylpropanamide] | > 19 µM | – | – | –
17 | O=C(CCc1ccccc1)N(Cc1nc2c(c(=O)[nH]1)COCC2)Cc1ccccc1F [Example 14, N-(2-Fluorobenzyl)-N-((4-oxo-4,5,7,8-tetrahydro-3H-pyrano[4,3-d]pyrimidin-2-yl)methyl)-3-phenylpropanamide] | 5.61 ± 0.24 µM | 4.09 ± 0.1 µM | 1050 ± 50 nM | –
18 | O=C(CCc1c[nH]c2ccccc12)N(Cc1nc2c(c(=O)[nH]1)COCC2)Cc1cccs1 [Example 3, 3-(1H-Indol-3-yl)-N-(4-oxo-3,5,7,8-tetrahydro-4H-pyrano[4,3-d]pyrimidin-2-ylmethyl)-N-thiophen-2-ylmethyl-propionamide] | – | 9.31 ± 3.9 µM | – | –
19 | O=C(CCc1ccccc1)N(Cc1nc2c(c(=O)[nH]1)COCC2)CC1CCCC1 [Example 13, N-Cyclopentylmethyl-N-(4-oxo-3,5,7,8-tetrahydro-4H-pyrano[4,3-d]pyrimidin-2-ylmethyl)-3-phenyl-propionamide] | 4.78 ± 0.36 µM | 4.09 ± 1.29 µM | 995 ± 94 nM | –
20 | O=C(CCc1ccncc1)N(Cc1nc2c(c(=O)[nH]1)COCC2)Cc1cccs1 [Example 11, N-((4-Oxo-4,5,7,8-tetrahydro-3H-pyrano[4,3-d]pyrimidin-2-yl)methyl)-3-(pyridin-4-yl)-N-(thiophen-2-ylmethyl)propanamide] | 4.17 ± 0.26 µM | – | – | –
21 | O=C(CCc1ccccc1O)N(Cc1nc2c(c(=O)[nH]1)COCC2)Cc1cccs1 [Example 6, 3-(2-Hydroxy-phenyl)-N-(4-oxo 3,5,7,8-tetrahydro-4H-pyrano[4,3-d]pyrimidin-2-ylmethyl)-N-thiophen-2-ylmethyl-propionamide] | 5.19 ± 0.227 µM | – | – | –
